{"source": "patent US9907846B2", "about": "(priority 2013, dated 2018)", "key": {"[1]": {"assay": "Water solubility of drugs incorporated into G3 particles", "conditions": "drug alone or incorporated into G3 particles"}, "[2]": {"test_system": "U937 cells", "experimental": "The read out was the particle formulation i.e. the extraction of the membrane into the quillaja micell, the anticancer cell killing effect tested on U937 cancer cells and the stimulation of IL-8 of the same cells (see Materials and Methods).\nThe Alamar Blue assay was used essentially according recommendations from the supplier (Serotec Ltd, Oxford, UK). Briefly, the cells were adjusted to 1×10^5 cells/ml in cell culture medium and 200 μl/well cells in 96-well plates (Nunc, Roskilde, Denmark). Then various QS formulations or medium alone (as control) was added in triplicates and incubated 3 days at 37° C. in humidified atmosphere containing 5% CO2. Alamar Blue was added to a final concentration of 10% to the wells after specified time points. The cell metabolic activity was subsequently measured up to 8 hrs.\nFree form of QA is used as positive control. The cell metabolism activity is analyzed by Alamar Blue at 570 and 600 nm."}, "[3]": {"test_system": "PC-3 prostate cancer cells", "assay": "cells", "format": "cell-based, human", "experimental": "The samples were 5-fold serially diluted in 6 steps starting from the concentration of 100 μg/ml, and incubated with PC-3 prostate cancer cells for 3 days. Then the cells were stained and read by the FMCA method.\nThen the cells were stained and the cancer cell killing effect was read by the FMCA method."}, "[4]": {"assay": "Detection of vitamin D3 in the water phase (DiaSorin Liaison)", "format": "physicochemical", "method": "Samples with cholecalciferol (vitamin D3) incorporated in G3 particles were analysed at a University Hospital Laboratory on a Liaison automatic instrument. Although the assay (DiaSorin Liaison) is designed to measure 25-HO-D3 it has about one percent cross-reactivity with non-hydroxylated vitamin D3.\nFirst, 50% cholesterol and 50% vitamin D3 were used to form the lipid membrane. Quil A was added into the water phase to generate the G3 particles (for details, please refer to Example 1). 100% Cholesterol and 100% Vitamin D3 in water were used as the controls. Samples with vitamin D3 incorporated in G3 particles were analysed at the Uppsala University Hospital Laboratory on a DiaSorin Liaison automatic instrument."}, "[5]": {"test_system": "HL-60 AML cells", "assay": "FMCA cancer cell killing on HL-60 AML cells", "format": "cell-based, human", "conditions": "3 days, selected concentrations", "method": "The FMCA method is based on measurement of fluorescence generated from hydrolysis of fluorescein diacetate (FDA) to fluorescein by cells with intact plasma membranes. After above mentioned incubation for 3 days, the medium was removed by aspiration. After one wash with PBS, 100 μl/well of FDA dissolved in a physiological buffer (10 μg/ml) was added. The plates were incubated for 45 minutes and the generated fluorescence from each well was measured in a 96-well scanning fluorometer. The fluorescence is proportional to the number of intact cells in the well. Quality criteria for a successful analysis included a fluorescence signal in the control wells of more than five times of the mean blank value, a mean co-efficient of variation (CV) in the control wells of less than 30%.\nThe nanoparticles G3 and G3-DT formulated as described in Ex 1 and 2 were compared with the active component QHC form for the cancer cell killing effect. The samples were 5-fold serial diluted in 6 steps starting from 100 μg/ml, and incubated for 3 days with HL-60 AML cells. Then the cells were stained and read by the FMCA method.\nHL-60 AML cells were exposed for 3 days at pre-determined concentrations of G3 and cytarabine separately and in combination of these two as shown on FIG. 7. Then the cells were stained and read for cancer cell killing effect by the FMCA method. […]"}}, "note": "Values joined by “and” are separate entries in the source; they are usually repeats but may differ in a detail not shown here. Equal values may be shown once."}
{"smiles": "CS(=O)(=O)OCCCCOS(C)(=O)=O", "note": "[busulfan]", "values": [{"measurement": "solubility in water (visual)", "setting": "[1]", "result": "clear solutions"}]}
{"smiles": "N[C@H]1C(O)O[C@H](CO)[C@H](O)[C@@H]1O", "note": "(stereo partly drawn) [Galactosamine]", "values": [{"measurement": "EC50", "setting": "[2]", "result": "0.367 µg/mL and 0.389 µg/mL and 0.214 µg/mL"}]}
{"smiles": "CO[C@H]1C(=O)[C@]2(C)[C@@H](OC)C[C@H]3OC[C@@]3(OC(C)=O)[C@H]2[C@H](OC(=O)c2ccccc2)[C@]2(O)C[C@H](OC(=O)[C@H](O)[C@@H](NC(=O)OC(C)(C)C)c3ccccc3)C(C)=C1C2(C)C", "note": "[Cabazitaxel, cabazitaxel]", "values": [{"measurement": "IC50", "setting": "[3]; Homo sapiens, 72 h", "result": 25.5, "unit": "µM"}]}
{"smiles": "C=C1CC[C@H](O)C/C1=C/C=C1\\CCC[C@]2(C)[C@@H]([C@H](C)CCCC(C)C)CC[C@@H]12", "note": "[vitamin D3 control, cholecalciferol]", "values": [{"measurement": "vitamin D3 detected in the water phase", "setting": "[4]", "result": "only trace amount"}]}
{"smiles": "CC(=O)O[C@@]12CO[C@@H]1C[C@H](O)[C@@]1(C)C(=O)[C@H](O)C3=C(C)[C@@H](OC(=O)[C@H](O)[C@@H](NC(=O)OC(C)(C)C)c4ccccc4)C[C@@](O)([C@@H](OC(=O)c4ccccc4)[C@H]21)C3(C)C", "note": "[docetaxel]", "values": [{"measurement": "cells killed", "setting": "[3]; PC-3 cells, 3 days, selected concentrations, FMCA", "result": "> 2", "unit": "%"}]}
{"smiles": "Nc1ccn([C@@H]2O[C@H](CO)[C@@H](O)[C@@H]2O)c(=O)n1", "note": "[cytarabine]", "values": [{"measurement": "cells killed", "setting": "[5]", "result": "< 55", "unit": "%"}]}
